In patent US11352330B2, “Phenoxymethyl derivatives” (Hoffmann-La Roche Inc., priority 2015, dated 2022):

Molecular target: human ATX (Homo sapiens (Human), UniProt Q13822)
Test: Human ATX enzyme inhibition assay (fluorescence quenching, MR121 substrate)
Assay type: biochemical
Conditions: human His-tagged ATX 30 nM, MR121 substrate 1 μM, 30° C.
Outline: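 Human His-tagged ATX (30 nM final) preincubated 15 min at 30 °C with serially diluted compounds in Tris buffer pH 8.0 with Ca2+, Mg2+ and 0.01% Triton X-100. MR121/tryptophan-labelled substrate analogue (1 μM final) then added for 15 min at 30 °C; cleavage read by fluorescence dequenching.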

Compound | IC50 [nM]
Cc1cc(OCc2n[nH]c3nc(N4CC(O)C4)ncc23)c(C(C)(C)C)cc1C#N [Example D32, 5-tert-Butyl-4-[[6-(3-hydroxyazetidin-1-yl)-1H-pyrazolo[3,4-d]pyrimidin-3-yl]methoxy]-2-methylbenzonitrile] | 8
Cc1cc(OCc2n[nH]c3nc(OCC(O)CO)ncc23)c(C(C)(C)C)cc1Cl (centres unmarked) [Example D34, 3-[[3-[(2-tert-Butyl-4-chloro-5-methylphenoxy)methyl]-1H-pyrazolo[3,4-d]pyrimidin-6-yl]oxy]propane-1,2-diol] | 2
Cc1cc(OCc2n[nH]c3nc(NCCO)ncc23)c(C(C)(C)C)cc1C#N [Example D35] | 9
Cc1cc(OCc2n[nH]c3nc(OCC(O)CO)ncc23)c(C(C)(C)C)cc1C#N (centres unmarked) [Example D37, 5-tert-Butyl-4-[[6-(2,3-dihydroxypropoxy)-1H-pyrazolo[3,4-d]pyrimidin-3-yl]methoxy]-2-methylbenzonitrile] | 6
Cc1cc(OCc2n[nH]c3nc(OCCO)ncc23)c(C(C)(C)C)cc1C#N [Example D38, 5-tert-Butyl-4-[[6-(2-hydroxyethoxy)-1H-pyrazolo[3,4-d]pyrimidin-3-yl]methoxy]-2-methylbenzonitrile] | 9
Cc1cc(OCc2n[nH]c3ncccc23)c(-c2cc(C(=O)N3CCN(C)C(=O)C3)ccc2F)cc1Cl [Example D39] | 8
COCCN(C)C(=O)c1ccc(F)c(-c2cc(Cl)c(C)cc2OCc2n[nH]c3ncccc23)c1 [Example D40] | 6
Cc1cc(OCc2n[nH]c3ccccc23)c(-c2cc(C(=O)N3CCN(C)C(=O)C3)ccc2F)cc1Cl [Example D41] | 7
Cc1cc(OCc2n[nH]c3ncccc23)c(-c2cc(C(=O)N3CCCC3)ccc2F)cc1Cl [Example D42] | 6
N#Cc1cc(-c2cc(C(=O)N3CCCC3)ccc2F)c(OCc2n[nH]c3ncccc23)cc1Cl [Example D43] | 7
Cc1cc(OCc2n[nH]c3cnccc23)c(-c2cc(C(=O)N3CCN(C)C(=O)C3)ccc2F)cc1Cl [Example D44, 4-[3-[5-Chloro-4-methyl-2-(1H-pyrazolo[3,4-c]pyridin-3-ylmethoxy)phenyl]-4-fluorobenzoyl]-1-methylpiperazin-2-one] | 9
CC(C)(C)c1cc(S(C)(=O)=O)ccc1OCc1n[nH]c2ncccc12 [Example D45] | 23
COCCN(C)C(=O)c1ccc(F)c(-c2cc(Cl)c(C)cc2OCc2n[nH]c3cnccc23)c1 [Example D46] | 4
COc1ncccc1-c1cc(Cl)c(C)cc1OCc1n[nH]c2cnccc12 [Example D47] | 11
Cc1cc(C(C)(C)C)c(OCc2n[nH]c3ncccc23)cc1C#N [Example D48] | 32
Cc1cc(C(C)(C)C)c(OCc2n[nH]c3cnccc23)cc1C#N [Example D49] | 2
CC(C)(C)c1cc(Cl)c(C#N)cc1OCc1n[nH]c2cnccc12 [Example D50] | 1
N#Cc1cc(-c2cc(OC3CC3)ccc2F)c(OCc2n[nH]c3cnccc23)cc1Cl [Example D51] | 69

Compound | IC50 [nM]
CC(C)(C)c1cc(Cl)c(C#N)cc1OCc1n[nH]c2ncccc12 [Example D52] | 2
N#Cc1cc(-c2cc(OC3CC3)ccc2F)c(OCc2n[nH]c3ncccc23)cc1Cl [Example D53] | 8
N#Cc1cc(-c2cc(OC(F)(F)F)ccc2F)c(OCc2n[nH]c3ccncc23)cc1Cl [Example D54] | 28
N#Cc1cc(-c2cc(OC(F)(F)F)ccc2F)c(OCc2n[nH]c3ncccc23)cc1Cl [Example D55] | 3
Cc1cc(OCc2n[nH]c3c2CN(C(=O)OC(C)(C)C)CC3)c(C(C)(C)C)cc1Cl [Example E1, tert-Butyl 3-((2-tert-butyl-4-chloro-5-methylphenoxy)methyl)-6,7-dihydro-1H-pyrazolo[4,3-c]pyridine-5(4H)-carboxylate] | 746
CC(=O)N1CCc2[nH]nc(COc3cc(C)c(Cl)cc3C(C)(C)C)c2C1 [Example E2, 1-(3-((2-tert-Butyl-4-chloro-5-methylphenoxy)methyl)-6,7-dihydro-1H-pyrazolo[4,3-c]pyridin-5(4H)-yl)ethanone] | 41300
COCC(=O)N1CCc2[nH]nc(COc3cc(C)c(Cl)cc3C(C)(C)C)c2C1 [Example E3, 1-(3-((2-tert-Butyl-4-chloro-5-methylphenoxy)methyl)-6,7-dihydro-1H-pyrazolo[4,3-c]pyridin-5(4H)-yl)-2-methoxyethanone] | 80400
Cc1cc(OCc2n[nH]c3c2CCNC3)c(C(C)(C)C)cc1Cl [Example E4, 3-((2-tert-Butyl-4-chloro-5-methylphenoxy)methyl)-4,5,6,7-tetrahydro-1H-pyrazolo[3,4-c]pyridine] | 19
CC(=O)N1CCc2c(COc3cc(C)c(Cl)cc3C(C)(C)C)n[nH]c2C1 [Example E5, 1-(3-((2-tert-Butyl-4-chloro-5-methylphenoxy)methyl)-4,5-dihydro-1H-pyrazolo[3,4-c]pyridin-6(7H)-yl)ethanone] | 17
COCC(=O)N1CCc2c(COc3cc(C)c(Cl)cc3C(C)(C)C)n[nH]c2C1 [Example E6, 1-(3-((2-tert-Butyl-4-chloro-5-methylphenoxy)methyl)-4,5-dihydro-1H-pyrazolo[3,4-c]pyridin-6(7H)-yl)-2-methoxyethanone] | 15
COc1ncccc1-c1cc(Cl)c(C)cc1OCc1n[nH]c2c1CCNC2 [Example E7, 3-((4-Chloro-2-(2-methoxypyridin-3-yl)-5-methylphenoxy)methyl)-4,5,6,7-tetrahydro-1H-pyrazolo[3,4-c]pyridine] | 202
COc1ncccc1-c1cc(Cl)c(C)cc1OCc1n[nH]c2c1CCN(C(C)=O)C2 [Example E8, 1-(3-((4-Chloro-2-(2-methoxypyridin-3-yl)-5-methylphenoxy)methyl)-4,5-dihydro-1H-pyrazolo[3,4-c]pyridin-6(7H)-yl)ethanone] | 69
Cc1cc(OCc2cc[nH]n2)c(C(C)(C)C)cc1Cl [Example F1, 3-((2-tert-Butyl-4-chloro-5-methylphenoxy)methyl)-1H-pyrazole] | 27
Cc1cc(OCc2cc[nH]n2)c(C(C)(C)C)cc1C#N [Example F2, 4-((1H-Pyrazol-3-yl)methoxy)-5-tert-butyl-2-methylbenzonitrile] | 18
COC(=O)c1cc(COc2cc(C)c(Cl)cc2C(C)(C)C)n[nH]1 [Example F3, Methyl 3-((2-(tert-butyl)-4-chloro-5-methylphenoxy)methyl)-1H-pyrazole-5-carboxylate] | 10
Cc1cc(OCc2cc(C(=O)N3CCCC3)[nH]n2)c(C(C)(C)C)cc1Cl [Example F4, (3-((2-(tert-Butyl)-4-chloro-5-methylphenoxy)methyl)-1H-pyrazol-5-yl)(pyrrolidin-1-yl)methanone] | 8
Cc1cc(OCc2cc(C(=O)N(C)C)[nH]n2)c(C(C)(C)C)cc1Cl [Example F5, 3-((2-(tert-Butyl)-4-chloro-5-methylphenoxy)methyl)-N,N-dimethyl-1H-pyrazole-5-carboxamide] | 15
